Converted amounts (≈) assume the structure as drawn.
Key:
[1] = rat, in vivo, po, 10 mg/kg
Description: Plasma concentration in Long-Evans rat at 10 mg/kg, po

[2] = rat, in vivo, po, 10 mg/kg; remark: listed apart in the source
Description: Drug concentration in Long-Evans rat brain at 10 mg/kg, po

[3] = in vivo; conditions: Long-Evans, rat, brain/plasma, po, 10 mg/kg
Description: Ratio of drug concentration in Long-Evans rat brain to plasma at 10 mg/kg, po

[4] = physchem; conditions: pH 7.4 buffer
Description: Solubility in pH 7.4 buffer

Row | Cp [1] | Drug uptake [2] | Kp [3] | solubility [4] | SMILES
1 | 1640 ng/mL | 788 ng/mL | 0.5 | – | C[C@@H]1CCN(C(=O)c2ccc3occc3c2)C[C@H]1c1cc(C(F)F)nc2ncnn12
2 | – | – | – | 105 µM (≈ 44.6 µg/mL) | CS(=O)(=O)n1ccc2cc(C(=O)N3CCCC(c4ccnc5ncnn45)C3)ccc21 (racemic)

Source: ChEMBL document CHEMBL4665888, “[1,2,4]Triazolo[1,5-a]pyrimidine Phosphodiesterase 2A Inhibitors: Structure and Free-Energy Perturbation-Guided Exploration” (J Med Chem, 2020)
